Where a name gives a salt, the structure may show the parent alone.
melting point | Compound
165 °C (dec.) | COc1ccc(-c2ccc3nc(CCN4CCC[C@H]4C)ccc3c2)cc1 (as salt: hydrochloride) [Example 46, 6-(4-methoxyphenyl)-2-{2-[(2R)-2-methyl-1-pyrrolidinyl]ethyl}quinoline]
162 to 164 °C (dec.) | C[C@@H]1CCCN1CCc1ccc2cc(C(=O)c3cccc(F)c3)ccc2n1 (as salt: hydrochloride) [Example 50, (3-fluorophenyl)(2-{2-[(2R)-2-methyl-1-pyrrolidinyl]ethyl}-6-quinolinyl)methanone]
212.6 to 213.6 °C | C[C@@H]1CCCN1Cc1ccc2cc(-c3ccc(C#N)cc3)ccc2c1 (as salt: hydrochloride) [Example 6, 4-(6-{[(2R)-2-methyl-1-pyrrolidinyl]methyl}-2-naphthyl)benzonitrile]
164 °C | C[C@@H]1CCCN1CCc1ccc2cc(-c3ccc(C#N)cc3)ccc2n1 (as salt: tartrate) [Example 42, 4-(2-{2-[(2R)-2-methyl-1-pyrrolidinyl]ethyl}-6-quinolinyl)benzonitrile]
145 °C | C[C@@H]1CCCN1CCc1ccc2cc(-c3ccc(F)cc3)ccc2n1 (as salt: hydrochloride) [Example 43, 6-(4-fluorophenyl)-2-{2-[(2R)-2-methyl-1-pyrrolidinyl]ethyl}quinoline]

Further lines, the molecule ahead of its results:

Compound | melting point
C[C@@H]1CCCN1CCc1ccc2cc(-c3cccnc3)ccc2n1 (as salt: hydrochloride) [Example 51, 2-{2-[(2R)-2-methyl-1-pyrrolidinyl]ethyl}-6-(3-pyridinyl)quinoline] | 205 to 207 °C
C[C@@H]1CCCN1CCc1ccc2cc(-c3ccc(C(F)(F)F)cc3)ccc2n1 (as salt: hydrochloride) [Example 47, 2-{2-[(2R)-2-methyl-1-pyrrolidinyl]ethyl}-6-[4-(trifluoromethyl)phenyl]quinoline] | 143 to 145 °C (dec.)
C[C@@H]1CCCN1CCc1ccc2cc(-c3cccc(C#N)c3)ccc2c1 [Example 7, 3-(6-{2-[(2R)-2-methyl-1-pyrrolidinyl]ethyl}-2-naphthyl)benzonitrile] | 228.5 to 231.6 °C
C[C@@H]1CCCN1CCc1ccc2cc(Br)ccc2c1 (as salt: HCl) [Example 2, (2R)-1-[2-(6-bromo-2-naphthyl)ethyl]-2-methylpyrrolidine] | 247.3 to 250.7 °C
